Results on 16 compounds are retold here after PubChem BioAssay (NCI).

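Assay format: 96-well plates, 48-hour exposure. At the TGI there is no net growth.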

Holding throughout (test): DTP human tumour cell line panel, 48 h
Experiment [1] deals with PC-3 prostate.
Experiment [2] deals with SK-MEL-2 melanoma.
Experiment [3] has as its system OVCAR-4 ovarian.
For experiment [4], the system named is CAKI-1 renal.
Experiment [5] has as its system HT29 colon.
Experiment [6] deals with LOX IMVI melanoma.
The subject of experiment [7] is SF-295 CNS.
Experiment [8] deals with SNB-75 CNS.
In experiment [9] the test system is NCI-H460 lung.
Experiment [10] deals with COLO 205 colon.
The test system of experiment [11] is HS 578T breast.
Experiment [12] concerns HCC-2998 colon.
Experiment [13] has as its system 786-0 renal.
In experiment [14] the test system is HCT-116 colon.
The subject of experiment [15] is MDA-MB-435.
The test system of experiment [16] is SW-620 colon.
Experiment [17] deals with RPMI-8226 leukemia.

In general, TGI refers to the concentration at which net growth stops. For `Cc1ccc2nc(CN3CCCCC3)cc(=O)n2c1`, the TGI in [1], in [2], in experiment [3], in [4], in experiment [5] and in experiment [6] was over 100 µM each time. The TGI in experiment [7], in experiment [8], in [9], in experiment [10], in experiment [11] and in experiment [12] was over 100 µM throughout. Also, the TGI in experiment [13], in [14], in experiment [15], in experiment [16] and in experiment [17] was over 100 µM throughout.
As to `CC(C)CC(=O)OC[n+]1cccc(-c2c(COC(=O)NC(C)C)c(COC(=O)NC(C)C)c3n2CCC3)c1`, the TGI in [1] is over 100 µM; in [2], over 100 µM; in experiment [3], over 100 µM; in experiment [4], 73.9 µM; in experiment [5], over 100 µM; in experiment [6] it was over 100 µM. Besides, the TGI in experiment [7], in experiment [8], in experiment [9], in experiment [10], in experiment [11] and in experiment [12] was over 100 µM in each case. In addition, the TGI in [13] is 97.7 µM; in experiment [14], over 100 µM; in experiment [15], over 100 µM; in [16], over 100 µM; in experiment [17] it was over 100 µM.
Take `O=C(/C=C/c1c(O)c2ccccc2[nH]c1=O)CC(=O)C(=O)Nc1cccc(O)c1`: the TGI in experiment [1], in experiment [2], in [3], in experiment [4], in [5] and in experiment [6] was over 100 µM each time. Further, the TGI in experiment [7], in [8], in [9], in experiment [10], in experiment [11] and in experiment [12] was over 100 µM each time. The TGI in [13], in [14], in [15], in [16] and in experiment [17] was over 100 µM in each case.
On to `CCC1=NC(N/N=C/c2ccccc2O)=N/C1=C\c1ccccc1O`, for which the TGI is over 100 µM in experiment [1]; 66.2 µM in experiment [2]; over 31.3 µM in experiment [3]; over 100 µM in [4]; 37.5 µM in experiment [5]; over 42.9 µM in experiment [6]. Also, the TGI in [7] is over 100 µM; in [8], over 100 µM; in [9] it was 18.7 µM; in experiment [10] it was over 74.8 µM; in experiment [11], over 83.7 µM; in experiment [12], 36.4 µM. Moreover, the TGI in experiment [13] is over 72.1 µM; in experiment [14], 39.8 µM; in experiment [15], over 81.2 µM; in [16], over 100 µM; in [17], 53.8 µM.
Take `COc1c(C(=O)O)cccc1-c1cccc(C(=O)NCCN(CCNC(=O)c2cccc(-c3cccc(C(=O)O)c3OC)c2OC)CCNC(=O)c2cccc(-c3cccc(C(=O)O)c3OC)c2OC)c1OC`: the TGI in experiment [1], in experiment [2], in experiment [3], in experiment [4], in experiment [5] and in experiment [6] was over 100 µM in each case. The TGI in [7] was over 100 µM; in experiment [8] it was over 100 µM; in experiment [9], over 100 µM; in experiment [10] it was 62.9 µM; in experiment [11] it was 81.1 µM; in experiment [12] it was 79 µM. Besides, the TGI in [13] was over 100 µM; in experiment [14] it was over 100 µM; in experiment [15], 34.3 µM; in experiment [16], over 100 µM; in experiment [17] it was 65.2 µM.
Regarding `CC(=O)NNc1nc(C)c(C(/C=C/c2ccccc2O)=N/NC(=O)c2ccncc2)s1`, the TGI in experiment [1], in experiment [2], in [3], in experiment [4], in [5] and in experiment [6] was over 100 µM in each case. Besides, the TGI in experiment [7], in experiment [8], in experiment [9], in experiment [10], in experiment [11] and in experiment [12] was over 100 µM in each case. The TGI in experiment [13], in experiment [14], in experiment [15], in experiment [16] and in experiment [17] was over 100 µM throughout.
For `Cc1cc(C)n(C(=O)C(C)Sc2nnc(SC(C)C(=O)n3nc(C)cc3C)s2)n1` (configuration not stated), the TGI in [1], in [2], in experiment [3], in [4], in experiment [5] and in experiment [6] was over 100 µM throughout. In addition, the TGI in experiment [7], in experiment [8], in experiment [9], in experiment [10], in [11] and in experiment [12] was over 100 µM throughout. The TGI in experiment [13], in experiment [14], in experiment [15], in experiment [16] and in [17] was over 100 µM in each case.
For the compound `CCOP(=O)(CCC(O)CNc1nc(N)nc(Cl)c1N=Nc1ccc(Cl)cc1)OCC` (configuration not stated), the TGI in [1] came to 29.7 µM; in experiment [2], 24.3 µM; in [3], 24.3 µM; in experiment [4], 14.5 µM; in [5], 28.8 µM; in [6] it was 22.9 µM. In addition, the TGI in experiment [7] was 38 µM; in experiment [8] it was 49.3 µM; in [9], 26.1 µM; in experiment [10] it was 27.4 µM; in experiment [11], 38.2 µM; in [12], 26.1 µM. Further, the TGI in experiment [13] was 48.4 µM; in experiment [14], 40.3 µM; in experiment [15], 29.9 µM; in [16], 42.7 µM; in [17], 42.7 µM.
Consider `COc1c(C(CC(C)C)OC(C)=O)ccc2c1C(=O)OCc1cc(C)cc(O)c1O2` (configuration not stated), for which the TGI was found to be 21.6 µM in [1]; 33.4 µM in [2]; 27.1 µM in [3]; 32.2 µM in experiment [4]; 32.2 µM in experiment [5]; 27.8 µM in experiment [6]. Also, the TGI is 27.8 µM in experiment [7]; 42.1 µM in [8]; 26.8 µM in experiment [9]; 31.8 µM in experiment [10]; 50.4 µM in experiment [11]; 25.4 µM in experiment [12]. In addition, the TGI is 29.2 µM in experiment [13]; 25.1 µM in [14]; 26.6 µM in experiment [15]; 31.5 µM in experiment [16]; over 100 µM in experiment [17].
With `O=c1[nH]c2nccn2c(Cl)c1Br`, the TGI is over 100 µM in [1]; 16.3 µM in experiment [2]; 34.9 µM in experiment [3]; 40.7 µM in [4]; 48.8 µM in experiment [5]; 34.4 µM in experiment [6]. Moreover, the TGI in experiment [7] is over 100 µM; in experiment [8], 77.8 µM; in experiment [9] it was over 100 µM; in [10], 34.4 µM; in experiment [11], 66 µM; in experiment [12], 36 µM. The TGI was over 100 µM in experiment [13]; over 100 µM in experiment [14]; 42 µM in experiment [15]; 60.1 µM in [16]; over 100 µM in [17].
As to `Cc1ccc(S(=O)(=O)Oc2coc(CO)cc2=O)cc1`, the TGI in experiment [1] is 38.2 µM; in experiment [2], 57.6 µM; in experiment [3] it was 32.3 µM; in experiment [4], 10.4 µM; in [5], 30.4 µM; in [6], 14.9 µM. For the same compound, the TGI in [7] is 31.3 µM; in experiment [8], 33.3 µM; in [9], 31.1 µM; in experiment [10] it was 28.6 µM; in [11], over 72.7 µM; in experiment [12], 27 µM. In addition, the TGI in experiment [13] came out at 23.4 µM; in experiment [14], 15 µM; in [15], 30.7 µM; in [16], 42 µM; in experiment [17], 36.5 µM.
For the compound `CCC/C(Cl)=N\OC(=O)Nc1ccc(Br)cc1`, the TGI in experiment [1] stood at 28.4 µM; in experiment [2], 28.9 µM; in [3] it was 48.2 µM; in experiment [4] it was 5.77 µM; in experiment [5], 44.1 µM; in experiment [6], 10.6 µM. Moreover, the TGI was found to be 30.2 µM in experiment [7]; 29 µM in [8]; 34.6 µM in [9]; 7.19 µM in [10]; 66.6 µM in [11]; 32.9 µM in experiment [12]. For the same compound, the TGI in experiment [13] came out at 18.5 µM; in [14] it was 26.2 µM; in experiment [15], 28.7 µM; in experiment [16], 5.52 µM; in experiment [17], 12.2 µM.
As for `C=C(CO)[C@H]1CC/C(C)=C/CC/C(C)=C/C/C=C(\C)[C@H](O)C1`, the TGI was over 100 µM in [1]; 51.5 µM in [2]; over 100 µM in experiment [3]; 75.1 µM in experiment [4]; 35 µM in [5]; 73.8 µM in experiment [6]. In addition, the TGI in [7] is over 100 µM; in [8] it was 78.9 µM; in [9], 62.7 µM; in [10], 59.9 µM; in experiment [11] it was 74.1 µM; in [12], 32.2 µM. Also, the TGI is 57.5 µM in experiment [13]; over 100 µM in [14]; 35.8 µM in [15]; 40.1 µM in experiment [16]; 51.6 µM in [17].
`COc1ccc2c(c1)-c1c(c3ccccc3n1CCN1CCCCC1)CC2`: the TGI in [1] was over 87.7 µM; in [2], 16.7 µM; in [3], over 100 µM; in [4], over 75.2 µM; in [5] it was 24.5 µM; in experiment [6] it was 33.3 µM. The TGI in [7] was 34.4 µM; in [8], over 100 µM; in experiment [9], 32.4 µM; in experiment [10] it was 29.9 µM; in experiment [11], over 65.7 µM; in [12], 19.2 µM. In addition, the TGI in [13] was 41.9 µM; in experiment [14], 29.5 µM; in [15], 73.2 µM; in experiment [16] it was 81.2 µM; in experiment [17], 36.3 µM.
Regarding `COc1ccc(-c2cc(=O)c3c(O)c(OC)c(O)cc3o2)cc1O`, the TGI in experiment [1] was over 88.1 µM; in experiment [2], over 43.5 µM; in [3], over 100 µM; in experiment [4], over 73.2 µM; in experiment [5] it was over 61.8 µM; in experiment [6] it was 32.7 µM. The concentration for total growth inhibition (TGI) in experiment [7] is over 100 µM; in [8] it was 60 µM; in [9], 43.6 µM; in [10], 59.6 µM; in experiment [11], 87.3 µM; in experiment [12], over 100 µM. The TGI was over 52.7 µM in [13]; 32.4 µM in experiment [14]; over 100 µM in experiment [15]; over 100 µM in [16]; over 23.6 µM in [17].
Turning to `CC1=C/C(=N\N(C)C)C(C(O)(C(F)(F)F)C(F)(F)F)C(C)(C)C1` (configuration not stated), the TGI in experiment [1], in experiment [2], in [3], in experiment [4], in experiment [5] and in [6] was over 100 µM throughout. The TGI in [7], in experiment [8], in [9], in experiment [10], in [11] and in experiment [12] was over 100 µM in each case. The TGI in experiment [13], in experiment [14], in experiment [15], in experiment [16] and in [17] was over 100 µM in each case.
